The text below walks through data of PMC9736855, “Discovery of 3-Amino-1H-pyrazole-Based Kinase Inhibitors to Illuminate the Understudied PCTAIRE Family” (International Journal of Molecular Sciences, 2022).

Data set [1] concerns the target T1, BRPF1B (Homo sapiens, UniProt P55201).
T1 construct: purchased in-house DSF panel (SGC Frankfurt)
In words: DSF. The format is binding.

The target in data set [2] is T2, MAPKAPK2 (Homo sapiens, UniProt P49137).
T2 construct: purchased in-house DSF panel (SGC Frankfurt)
T2 sequence (P49137 64-325): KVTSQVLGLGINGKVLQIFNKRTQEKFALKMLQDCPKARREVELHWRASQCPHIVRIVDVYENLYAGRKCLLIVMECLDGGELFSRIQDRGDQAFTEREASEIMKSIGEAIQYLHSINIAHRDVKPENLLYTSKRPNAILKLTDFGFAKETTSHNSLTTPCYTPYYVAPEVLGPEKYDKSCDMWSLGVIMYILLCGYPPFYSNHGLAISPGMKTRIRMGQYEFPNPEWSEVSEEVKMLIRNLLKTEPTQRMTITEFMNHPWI
Briefly: DSF. The format is binding. The procedure:
Recombinant protein kinase domains with a concentration of 2 μM were mixed with a 10 μM compound solution in DMSO, 20 mM HEPES, pH 7.5, and 500 mM NaCl. SYPRO Orange (5000×, Invitrogen) was added as a fluorescence probe (1 µl per mL). Subsequently, temperature-dependent protein unfolding profiles were measured, using the QuantStudio™ 5 realtime PCR machine (Thermo Fisher, Waltham, MA, USA). […] The temperature was raised with a step rate of 3 °C per minute. Data points were analyzed with the internal software (Thermal Shift SoftwareTM Version 1.4, Thermo Fisher) using the Boltzmann equation to determine the inflection point of the transition curve. Differences in melting temperature are given as ΔTm values in °C. Measurements were performed in duplicates.

Data set [3] has as its target T3, MAPK8 (Homo sapiens, UniProt P45983).
T3 construct: purchased in-house DSF panel (SGC Frankfurt)
Briefly: DSF. The format is binding.
Experimental: (§2) Recombinant protein kinase domains with a concentration of 2 μM were mixed with a 10 μM compound solution in DMSO, 20 mM HEPES, pH 7.5, and 500 mM NaCl. SYPRO Orange (5000×, Invitrogen) was added as a fluorescence probe (1 µl per mL). Subsequently, temperature-dependent protein unfolding profiles were measured, using the QuantStudio™ 5 realtime PCR machine (Thermo Fisher, Waltham, MA, USA). […] The temperature was raised with a step rate of 3 °C per minute. Data points were analyzed with the internal software (Thermal Shift SoftwareTM Version 1.4, Thermo Fisher) using the Boltzmann equation to determine the inflection point of the transition curve [56]. Differences in melting temperature are given as ΔTm values in °C. Measurements were performed in duplicates.

The test system of data set [4] is RPS6KA5. Briefly: DSF. It counts as binding.
Experimental: as §2
Data set [5] has as its target T4, SPRK1 (Homo sapiens, UniProt Q96SB4).
T4 construct: purchased in-house DSF panel (SGC Frankfurt)
Briefly: DSF. The format is binding.
Experimental: as §2

In data set [6] the target is T5, TLK1 (Homo sapiens, UniProt Q9UKI8).
T5 construct: purchased in-house DSF panel (SGC Frankfurt)
T5 sequence (Q9UKI8 456-734): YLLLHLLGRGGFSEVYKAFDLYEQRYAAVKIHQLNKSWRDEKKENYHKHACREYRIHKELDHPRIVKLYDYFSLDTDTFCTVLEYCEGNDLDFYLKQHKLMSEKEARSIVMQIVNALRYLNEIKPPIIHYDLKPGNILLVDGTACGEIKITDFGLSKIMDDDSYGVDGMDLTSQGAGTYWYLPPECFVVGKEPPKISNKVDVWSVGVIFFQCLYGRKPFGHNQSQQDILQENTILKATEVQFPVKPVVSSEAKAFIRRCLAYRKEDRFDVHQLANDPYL
In words: DSF. It counts as binding.
Experimental: as §2

The test system of data set [7] is PCTAIRE family. In words: NanoBRET. Conditions: read-out: cellular potency, other members of the PCTAIRE family. It counts as cell-based. The method in brief:
(§1)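 Cells (HEK293T) are transfected with full-length kinase–NanoLuc plasmids and allowed 20 h expression. Trypsinized cells are added to inhibitor dilutions plus tracer at KD,app and equilibrated 2 h at 37 °C/5% CO2. Luminescence at 450 and 610 nm gives BRET; EC50 from a normalized fit.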
(Bioluminescence resonance energy transfer reports proximity on the nanometre scale.)

A short description of data set [8]: Microsomal stability assay. The conditions noted are these: rat liver microsomes, 10 µM, 37 °C, 60 min. It counts as in vitro ADME, Sprague-Dawley rats. The procedure:
The lead structure 1 was not included in this assay due to its promiscuous behaviour. Since 1 is presumably not suitable as a tool compound to study the effect of selective kinase inhibition in an in vivo application, we focused on the newly synthesized compounds 21i and 43d. The compounds were tested against an activated microsome mix derived from the liver of Sprague-Dawley rats, as previously reported. 21i and 43d were incubated at 37 °C for 60 min and the amount of unmetabolized compound was determined in 15 min steps, using high-performance liquid chromatography (HPLC).
The solubilized test compound (5 μL, final concentration 10 µM) was preincubated at 37 °C in 432 μL of phosphate buffer (0.1 M, pH 7.4) together with 50 μL NADPH regenerating system (30 mM glucose 6 phosphate, 4 U/mL glucose 6 phosphate dehydrogenase, 10 mM NADP, 30 mM MgCl2). After 5 min, the reaction was started by the addition of 13 μL of microsome mix from the liver of Sprague−Dawley rats (Invitrogen; 20 mg protein/mL in 0.1 M phosphate buffer) in a shaking water bath at 37 °C. The reaction was stopped by adding 500 μL of ice cold methanol at 0, 15, 30 and 60 min. […] The amounts of the test compound were quantified by an external calibration curve. Data are expressed as the mean ± SEM remaining compound from three independent experiments.
Background: Microsomes from liver hold many membrane-bound enzymes, among them those of drug oxidation.

The target of data set [9] is GSK3B (Homo sapiens, UniProt P49841). Briefly: NanoBRET. The format is cell-based. Details: Full-length kinases were obtained as plasmids cloned in frame with a terminal NanoLuc-fusion; host or cells: HEK293T. The procedure: The assay was performed as described previously. In brief: Full-length kinases were obtained as plasmids cloned in frame with a terminal NanoLuc-fusion (Promega, Madison, WI, USA), as specified in table (Table S6). Plasmids were transfected into HEK293T cells using FuGENE HD (Promega, E2312) and proteins were allowed to express for 20h. Serially diluted inhibitor and NanoBRET Kinase Tracer (Promega) at a concentration determined previously as the KD,app (Table S5) were pipetted into white 384-well plates (Greiner 781207) using an Echo acoustic dispenser (Labcyte, San Jose, CA, USA). The corresponding protein-transfected cells were added and reseeded at a density of 2.5 × 10^5 cells/mL after trypsinization and resuspending in Opti-MEM without phenol red (Life Technologies, Carlsbad, CA, USA). The system was allowed to equilibrate for 2 h at 37 °C/5% CO2 prior to BRET measurements. To measure BRET, NanoBRET NanoGlo Substrate + Extracellular NanoLuc Inhibitor (Promega, N2540) was added as per the manufacturer’s protocol, and filtered luminescence was measured on a PHERAstar plate reader (BMG Labtech, Ortenberg, Germany) equipped with a luminescence filter pair (450 nm BP filter (donor) and 610 nm LP filter (acceptor)). […]

The target in data set [10] is T6, CDK1/Cyclin B1 (Homo sapiens, UniProt P06493).
T6 construct: Full-length kinases were obtained as plasmids cloned in frame with a terminal NanoLuc-fusion; CS1810C170 (CCNB1); host or cells: HEK293T
T6 sequence (P06493 whole entry, the tested form may be a part): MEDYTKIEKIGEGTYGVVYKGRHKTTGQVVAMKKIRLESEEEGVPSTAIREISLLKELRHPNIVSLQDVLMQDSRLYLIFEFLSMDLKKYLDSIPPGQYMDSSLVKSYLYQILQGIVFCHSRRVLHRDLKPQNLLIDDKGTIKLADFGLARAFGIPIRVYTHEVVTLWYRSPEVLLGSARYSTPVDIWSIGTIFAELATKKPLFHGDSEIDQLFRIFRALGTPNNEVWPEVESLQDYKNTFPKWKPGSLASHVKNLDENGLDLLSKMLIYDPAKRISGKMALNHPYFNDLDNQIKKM
T6 sequence (P14635 whole entry partner, the tested form may be a part): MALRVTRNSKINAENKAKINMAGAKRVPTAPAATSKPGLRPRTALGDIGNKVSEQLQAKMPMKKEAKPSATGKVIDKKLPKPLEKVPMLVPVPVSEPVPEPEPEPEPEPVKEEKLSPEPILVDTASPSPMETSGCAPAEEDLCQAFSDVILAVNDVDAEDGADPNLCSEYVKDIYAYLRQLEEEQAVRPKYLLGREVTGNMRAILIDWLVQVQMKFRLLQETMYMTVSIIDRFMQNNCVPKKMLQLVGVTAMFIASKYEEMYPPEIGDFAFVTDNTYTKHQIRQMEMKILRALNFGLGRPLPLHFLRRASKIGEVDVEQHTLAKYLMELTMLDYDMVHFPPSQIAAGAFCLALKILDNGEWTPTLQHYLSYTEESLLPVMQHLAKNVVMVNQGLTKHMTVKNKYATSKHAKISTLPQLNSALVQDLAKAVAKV
Briefly: NanoBRET. Conditions: read-out: NanoBRET EC50 ± SEM CDK1/Cyclin B1. It counts as cell-based. In short, it runs like this:
as §1

Data set [11] has as its target T7, CDK5/CDK5R1 (Homo sapiens, UniProt Q00535).
T7 construct: Full-length kinases were obtained as plasmids cloned in frame with a terminal NanoLuc-fusion; CS1810C173 (CDK5R1); host or cells: HEK293T
In words: NanoBRET. It counts as cell-based. The conditions noted are these: read-out: NanoBRET EC50 ± SEM CDK5/CDK5R1. In short, it runs like this:
as §1

For data set [12], the target named is T8, CDK5/CDK5R2 (Homo sapiens, UniProt Q00535).
T8 construct: Full-length kinases were obtained as plasmids cloned in frame with a terminal NanoLuc-fusion; CS1810C174 (CDK5R2); host or cells: HEK293T
T8 sequence (Q00535 whole entry, the tested form may be a part): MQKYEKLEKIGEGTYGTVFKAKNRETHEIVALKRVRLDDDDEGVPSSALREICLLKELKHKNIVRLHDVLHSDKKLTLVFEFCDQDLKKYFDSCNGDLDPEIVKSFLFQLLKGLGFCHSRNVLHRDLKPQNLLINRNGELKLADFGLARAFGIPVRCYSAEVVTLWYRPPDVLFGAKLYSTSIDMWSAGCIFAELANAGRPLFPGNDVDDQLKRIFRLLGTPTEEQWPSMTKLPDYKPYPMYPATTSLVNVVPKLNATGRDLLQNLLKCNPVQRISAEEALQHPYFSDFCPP
T8 sequence (Q13319 whole entry partner, the tested form may be a part): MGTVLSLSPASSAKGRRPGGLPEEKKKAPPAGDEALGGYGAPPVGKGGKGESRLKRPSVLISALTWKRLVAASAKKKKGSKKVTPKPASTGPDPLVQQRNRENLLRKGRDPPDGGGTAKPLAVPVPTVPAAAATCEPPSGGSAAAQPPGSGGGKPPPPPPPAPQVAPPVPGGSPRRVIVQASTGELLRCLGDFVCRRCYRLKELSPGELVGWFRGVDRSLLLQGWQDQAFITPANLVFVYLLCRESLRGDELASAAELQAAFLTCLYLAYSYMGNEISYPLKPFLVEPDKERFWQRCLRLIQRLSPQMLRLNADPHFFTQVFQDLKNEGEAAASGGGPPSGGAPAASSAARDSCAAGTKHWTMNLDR
In words: NanoBRET. The format is cell-based. The conditions noted are these: read-out: NanoBRET EC50 ± SEM CDK5/CDK5R2. In short, it runs like this:
as §1

The test system of data set [13] is 359 wild-type kinases. Further details: method as in PMID 19053485. The conditions noted are these: kinome-wide screen; cited from earlier work.
In data set [14] the target is T9, CDK2 (Homo sapiens, UniProt P24941).
T9 construct: purchased in-house DSF panel (SGC Frankfurt)
Conditions: cited from earlier work.

The target of data set [15] is CDK5. Conditions: cited from earlier work.
Data set [16] addresses T10, JNK3 (Homo sapiens, UniProt P53779).
T10 construct: Recombinant protein kinase domains with a concentration of 2 μM were mixed; made in house
Further details: method as in PMID 19053485. The conditions noted are these: cited from earlier work.

T7 sequence (Q00535 whole entry, the tested form may be a part): as the sequence (Q00535 whole entry, the tested form may be a part) above
T7 sequence (Q15078 whole entry partner, the tested form may be a part): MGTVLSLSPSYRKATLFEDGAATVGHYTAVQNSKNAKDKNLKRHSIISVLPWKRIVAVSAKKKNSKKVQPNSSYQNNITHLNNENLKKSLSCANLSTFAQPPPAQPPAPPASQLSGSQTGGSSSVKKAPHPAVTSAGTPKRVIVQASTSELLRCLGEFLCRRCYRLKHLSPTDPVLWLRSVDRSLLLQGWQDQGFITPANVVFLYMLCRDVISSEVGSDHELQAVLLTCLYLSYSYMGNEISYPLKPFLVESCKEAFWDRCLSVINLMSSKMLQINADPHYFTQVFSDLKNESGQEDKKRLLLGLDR
T3 sequence (P45983 1-364): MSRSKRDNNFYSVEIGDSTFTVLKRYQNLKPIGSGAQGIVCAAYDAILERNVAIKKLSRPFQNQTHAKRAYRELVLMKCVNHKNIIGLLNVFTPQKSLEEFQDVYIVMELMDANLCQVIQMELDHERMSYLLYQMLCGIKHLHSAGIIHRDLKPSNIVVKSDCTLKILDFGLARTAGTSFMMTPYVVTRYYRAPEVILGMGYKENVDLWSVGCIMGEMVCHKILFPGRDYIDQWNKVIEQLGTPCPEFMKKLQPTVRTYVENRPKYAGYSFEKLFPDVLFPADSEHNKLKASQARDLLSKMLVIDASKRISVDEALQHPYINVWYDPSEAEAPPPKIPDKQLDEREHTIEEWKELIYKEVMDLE
T1 sequence (P55201 whole entry): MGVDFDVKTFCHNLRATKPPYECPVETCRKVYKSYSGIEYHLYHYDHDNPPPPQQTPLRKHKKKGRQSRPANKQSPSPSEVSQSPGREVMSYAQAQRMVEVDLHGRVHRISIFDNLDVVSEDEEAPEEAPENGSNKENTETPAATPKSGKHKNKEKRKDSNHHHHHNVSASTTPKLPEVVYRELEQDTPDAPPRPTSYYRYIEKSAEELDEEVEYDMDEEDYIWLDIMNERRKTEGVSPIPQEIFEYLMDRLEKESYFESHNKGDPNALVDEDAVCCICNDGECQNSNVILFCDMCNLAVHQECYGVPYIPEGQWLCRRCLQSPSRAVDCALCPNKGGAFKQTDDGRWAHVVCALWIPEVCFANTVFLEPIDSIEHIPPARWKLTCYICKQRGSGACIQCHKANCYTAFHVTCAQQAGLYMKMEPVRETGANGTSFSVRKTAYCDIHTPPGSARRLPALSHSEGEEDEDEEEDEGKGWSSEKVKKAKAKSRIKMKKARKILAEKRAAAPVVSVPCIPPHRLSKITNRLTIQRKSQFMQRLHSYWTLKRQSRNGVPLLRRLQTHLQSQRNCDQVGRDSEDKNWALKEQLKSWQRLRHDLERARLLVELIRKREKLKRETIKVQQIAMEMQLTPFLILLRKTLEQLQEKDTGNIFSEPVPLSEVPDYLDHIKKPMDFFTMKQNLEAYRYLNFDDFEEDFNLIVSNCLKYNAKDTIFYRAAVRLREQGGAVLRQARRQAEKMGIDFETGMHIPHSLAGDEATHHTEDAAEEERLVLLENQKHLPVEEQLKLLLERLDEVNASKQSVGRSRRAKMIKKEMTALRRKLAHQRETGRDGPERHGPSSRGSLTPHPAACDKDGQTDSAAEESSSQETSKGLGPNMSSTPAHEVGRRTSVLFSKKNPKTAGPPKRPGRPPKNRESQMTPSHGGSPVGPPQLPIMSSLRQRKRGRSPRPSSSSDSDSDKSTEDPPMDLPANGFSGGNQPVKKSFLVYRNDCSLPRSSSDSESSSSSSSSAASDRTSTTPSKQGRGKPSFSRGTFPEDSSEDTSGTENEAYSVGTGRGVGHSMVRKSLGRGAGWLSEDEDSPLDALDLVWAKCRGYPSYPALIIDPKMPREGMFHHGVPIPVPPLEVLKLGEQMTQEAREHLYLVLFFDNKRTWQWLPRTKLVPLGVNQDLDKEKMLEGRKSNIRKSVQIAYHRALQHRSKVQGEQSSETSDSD
T4 sequence (Q96SB4 whole entry): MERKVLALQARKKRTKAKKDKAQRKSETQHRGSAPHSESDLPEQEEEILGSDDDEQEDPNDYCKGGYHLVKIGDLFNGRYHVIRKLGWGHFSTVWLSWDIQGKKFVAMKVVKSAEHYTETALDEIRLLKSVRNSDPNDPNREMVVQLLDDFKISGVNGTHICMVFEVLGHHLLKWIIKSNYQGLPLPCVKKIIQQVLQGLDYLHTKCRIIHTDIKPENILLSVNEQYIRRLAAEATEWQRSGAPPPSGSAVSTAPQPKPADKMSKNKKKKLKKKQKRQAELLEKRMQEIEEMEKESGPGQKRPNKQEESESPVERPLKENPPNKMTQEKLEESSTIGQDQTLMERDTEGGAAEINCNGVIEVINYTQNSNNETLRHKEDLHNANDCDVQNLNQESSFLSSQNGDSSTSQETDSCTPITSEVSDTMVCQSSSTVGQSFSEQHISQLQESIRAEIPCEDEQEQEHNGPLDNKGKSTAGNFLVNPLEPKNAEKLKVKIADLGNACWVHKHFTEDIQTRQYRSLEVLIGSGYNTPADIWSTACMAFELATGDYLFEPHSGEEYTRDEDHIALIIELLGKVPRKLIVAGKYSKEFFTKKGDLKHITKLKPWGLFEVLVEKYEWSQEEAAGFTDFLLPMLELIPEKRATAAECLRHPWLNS

With `CC(C)(C)OC(=O)Nc1ccc(CNc2nccc(Nc3cc(C(=O)OC(C)(C)C)[nH]n3)n2)cc1` [43d, tert-butyl 3-((2-((4-((tert-butoxycarbonyl)amino)benzyl)amino)pyrimidin-4-yl)amino)-1H-pyrazole-5-carboxylate], in [1], the “ΔTm BRPF1B” value is -0.9 °C. For the same compound, the “ΔTm MAPKAPK2” value in [2] amounted to 0.2 °C. Further, in [3], the “ΔTm MAPK8” value is -0.1 °C. Besides, in [4], the “ΔTm RPS6KA5” value worked out at 1.7 °C. Further, the “ΔTm SPRK1” value in data set [5] was found to be 0.4 °C. Moreover, the “ΔTm TLK1” value in [6] is -1.4 °C. Also, the EC50 in [7] lay in the range of 20 to 120 nM. Also, the unmetabolized compound detected in data set [8] is 79%. Besides, the “NanoBRET EC50 GSK3B” value in data set [9] is given as “negligible”.
In the case of `CC(C)OC(=O)c1cc(Nc2ccnc(NCc3ccc(NC(=O)OC(C)(C)C)cc3)n2)n[nH]1` [42d, isopropyl 3-((2-((4-((tert-butoxycarbonyl)amino)benzyl)amino)pyrimidin-4-yl)amino)-1H-pyrazole-5-carboxylate], the “ΔTm BRPF1B” value in data set [1] is -1.4 °C. Further, in [2], the “ΔTm MAPKAPK2” value was -0.3 °C. For the same compound, in [3], the “ΔTm MAPK8” value was -0.8 °C. Besides, the “ΔTm RPS6KA5” value in [4] came out at 0.8 °C. In data set [5], the “ΔTm SPRK1” value is -0.2 °C. For the same compound, in data set [6], the “ΔTm TLK1” value is -1.2 °C.
In the case of `N#CCc1ccc(Nc2nccc(Nc3cc(C4CC4)[nH]n3)n2)cc1` [compound 1, reference compound], the EC50 in data set [10] came out at 63.1 ± 10.4 nM; in data set [11] it was 30.3 ± 10.3 nM; in data set [12], 11.9 ± 2.8 nM. Moreover, the “number of kinases targeted of 359 wild-type kinases” value in [13] is 337. In addition, the Kd (commonly the concentration at which binding is half-saturated) in data set [14] was 4.6 nM; in [15] it was 27.6 nM; in data set [16] it was 26.1 nM.
`COC(=O)c1cc(Nc2ccnc(NCc3ccc(NC(=O)OC(C)(C)C)cc3)n2)[nH]n1` [21i, methyl 5-((2-((4-((tert-butoxycarbonyl)amino)benzyl)amino)pyrimidin-4-yl)amino)-1H-pyrazole-3-carboxylate]: the EC50 worked out at 9300 ± 5790 nM in data set [10], 28600 ± 4650 nM in [11] and 38600 ± 5850 nM in data set [12]. The same compound displayed an unmetabolized compound detected in data set [8] of 16%.
